Source: patent publication US8188078B2 (Sanofi-Aventis, priority 2007, dated 2012)

Legend:
c-MET = biological target: T1, c-MET (Homo sapiens, UniProt P08581); test: Test A: HTRF Met test in 96-well format; assay type: biochemical
T1 construct: The recombinant DNA His-Tev-MET (956-1390) in pFastBac(Invitrogen); His (N, cleaved yes); Tev (TEV protease site) (N, cleaved yes); made in house; host or cells: SF21 insect cells (baculovirus, pFastBac)
Method: I) Expression and Purification of MET, Cytoplasmic Domain
The recombinant DNA His-Tev-MET (956-1390) in pFastBac(Invitrogen) is transfected in insect cells and after several stages of viral amplification, the final stock of baculovirus is tested for expression of the protein of interest.
After infection for 72 h at 27° C. with the recombinant virus, the SF21 cell cultures are harvested by centrifugation and the cellular deposits are stored at −80° C.
The cellular deposits are resuspended in the lysis buffer (buffer A [50 mM HEPES, pH 7.5, 250 mM NaCl, Glycerol 10%, TECP 1 mM]; +cocktail of protease inhibitors Roche Diagnostics without EDTA, ref 1873580), stirred at 4° C. until homogeneous, then lysed mechanically using apparatus of the “Dounce” type.
After centrifugation, the lysis supernatant is incubated for 2 h at 4° C. with Nickel Chelate resin (His-Trap 6 Fast Flow™, GE HealthCare). After washing with 20 volumes of Tp A, the suspension is packed in a column, and the proteins are eluted with a gradient of buffer B ([…]+290 mM imidazole).
The fractions containing the protein of interest with a view to electrophoretic analysis (SDS PAGE) are collected, concentrated by ultrafiltration (cut-off 10 kDa) and injected in an exclusion chromatography column (Superdex™ 200, GE HealthCare) equilibrated with buffer A.
After enzymatic cleavage of the tag Histidine, the protein is reinjected in a new IMAC Nickel Chelate chromatography column (His-Trap 6 Fast Flow™, GE HealthCare) equilibrated with Buffer A. The fractions eluted with a gradient of buffer B and containing the protein of interest after electrophoresis (SDS PAGE), are finally collected and stored at −80° C.
For the production of autophosphorylated protein, the preceding fractions are incubated for 1 h at room temperature after adding ATP 2 mM, MgCl2 2 mM, and Na3VO4 4 mM. After stopping the reaction with 5 mM of EDTA, the reaction mixture is injected in a HiPrep desalting column (GE HealthCare) equilibrated beforehand with buffer A+Na3VO4 4 mM; the fractions containing the protein of interest (SDS PAGE analysis) are collected and stored at −80° C. The degree of phosphorylation is verified by mass spectrometry (LC-MS), and by peptide mapping.
A) HTRF Met test in 96-well format
In a final volume of 50 μl of enzymatic reaction mixture, final c-MET 5 nM is incubated in the presence of the molecule to be tested (for a final concentration range from 0.17 nM to 10 μM, final DMSO 3%) in buffer MOPS 10 mM pH 7.4, DTT 1 mM, Tween 20 0.01%. The reaction is initiated by the substrate solution to obtain the final concentrations of poly-(GAT) 1 μg/ml, ATP 10 μM and MgCl2 5 mM. After incubation for 10 min at room temperature, the reaction is stopped with a mix of 30 μl to obtain a final solution of Hepes 50 mM pH 7.5, potassium fluoride 500 mM, BSA 0.1% and EDTA 133 mM in the presence of 80 ng Streptavidin 61SAXLB Cis-Bio Int. and 18 ng anti-phosphotyrosine Mab PT66-Europium Cryptate per well. After 2 hours of incubation at room temperature, reading is carried out at 2 wavelengths 620 nm and 665 nm in a reader for the TRACE/HTRF technique and the percentage inhibition is calculated according to the 665/620 ratios.

MET = biological target: T2, MET (Homo sapiens, UniProt P08581); test: Test C: inhibition of the autophosphorylation of MET, ELISA technique (pppY1230, 1234, 1235), MKN45 cells; assay type: cell-based
T2 construct: endogenous in cells; host or cells: MKN45 cells
T2 sequence (P08581 25-1390): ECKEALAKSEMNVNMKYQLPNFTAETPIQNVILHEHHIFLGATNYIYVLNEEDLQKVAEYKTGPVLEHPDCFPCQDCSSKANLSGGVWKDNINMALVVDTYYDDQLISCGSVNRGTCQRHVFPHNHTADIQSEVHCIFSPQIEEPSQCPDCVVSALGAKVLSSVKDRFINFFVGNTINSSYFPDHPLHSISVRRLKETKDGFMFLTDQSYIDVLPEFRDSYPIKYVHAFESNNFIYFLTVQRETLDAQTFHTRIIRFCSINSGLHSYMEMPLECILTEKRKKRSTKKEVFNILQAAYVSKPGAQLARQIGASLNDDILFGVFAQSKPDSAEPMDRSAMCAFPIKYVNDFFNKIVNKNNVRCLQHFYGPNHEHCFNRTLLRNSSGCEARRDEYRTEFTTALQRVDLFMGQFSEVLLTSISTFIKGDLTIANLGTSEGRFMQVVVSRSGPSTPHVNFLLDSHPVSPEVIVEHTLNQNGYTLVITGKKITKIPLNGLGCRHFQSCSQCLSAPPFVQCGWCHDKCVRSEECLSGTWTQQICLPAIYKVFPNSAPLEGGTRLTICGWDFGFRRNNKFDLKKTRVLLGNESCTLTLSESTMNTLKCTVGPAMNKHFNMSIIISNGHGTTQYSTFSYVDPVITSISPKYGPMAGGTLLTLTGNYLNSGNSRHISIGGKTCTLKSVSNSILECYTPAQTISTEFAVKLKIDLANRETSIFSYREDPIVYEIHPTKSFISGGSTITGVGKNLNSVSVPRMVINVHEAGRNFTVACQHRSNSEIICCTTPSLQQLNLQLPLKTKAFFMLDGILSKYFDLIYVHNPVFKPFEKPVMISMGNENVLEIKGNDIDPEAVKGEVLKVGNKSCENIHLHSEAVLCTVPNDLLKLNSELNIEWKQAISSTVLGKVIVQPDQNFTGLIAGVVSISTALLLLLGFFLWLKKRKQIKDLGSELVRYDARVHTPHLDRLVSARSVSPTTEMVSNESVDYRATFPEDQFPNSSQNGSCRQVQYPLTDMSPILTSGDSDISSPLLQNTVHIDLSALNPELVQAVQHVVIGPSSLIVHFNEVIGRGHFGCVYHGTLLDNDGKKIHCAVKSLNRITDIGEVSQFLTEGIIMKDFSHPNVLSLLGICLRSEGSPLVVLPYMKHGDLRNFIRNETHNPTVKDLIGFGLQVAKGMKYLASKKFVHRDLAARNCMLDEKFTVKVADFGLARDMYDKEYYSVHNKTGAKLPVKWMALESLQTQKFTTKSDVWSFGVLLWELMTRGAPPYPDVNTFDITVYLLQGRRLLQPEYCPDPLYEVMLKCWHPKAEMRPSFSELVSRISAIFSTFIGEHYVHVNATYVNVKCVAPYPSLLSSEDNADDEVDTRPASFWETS
Method: C) Inhibition of the Autophosphorylation of MET; ELISA Technique (pppY1230, 1234, 1235)
a) Cellular lysates: Sow the MKN45 cells in a 96-well plate (Cell coat BD polylysine) at 20 000 cells/well under 200 μl of medium RPMI+10% FCS+1% L-glutamine. Leave to adhere to the incubator for 24 h.
The cells are treated on the day after sowing with the products at 6 concentrations in duplicate for 1 h. At least 3 control wells are treated with the same amount of final DMSO.
Dilution of the products: Stock at 10 mM in pure DMSO—range from 10 mM to 30 μM with steps of 3 of pure DMSO—Intermediate dilutions to 1/50 in culture medium then taking of 10 μl added directly to the cells (200 μl): final range from 10000 to 30 nM.
At the end of incubation, carefully remove the supernatant and rinse with 200 μl of PBS. Then put 100 μl of lysis buffer directly in the wells on ice and incubate at 4° C. for 30 minutes. Lysis buffer: 10 mM Tris, HCl pH7.4, 100 mM NaCl, 1 mM EDTA, 1 mM EGTA, 1% Triton X-100, 10% glycerol, 0.1% SDS, 0.5% deoxycholate, 20 mM NaF, 2 mM Na3VO4, 1 mM PMSF and antiprotease cocktail.
The 100 μl of lysates are transferred to a V-bottomed polypropylene plate and ELISA is performed next or the plate is frozen at −80° C.
b) ELISA PhosphoMET BioSource Kit KH00281
In each well of the plate from the kit, add 70 μl of dilution buffer from the kit+30 μL of cell lysate or 30 μl of lysis buffer for the blank. Incubate for 2 h at room temperature, stirring gently.
Rinse the wells 4 times with 400 μl of washing buffer from the kit. Incubate with 100 μl of anti-phospho MET antibodies for 1 h at room temperature.
Rinse the wells 4 times with 400 μl of washing buffer from the kit. Incubate with 100 μl of anti-rabbit HRP antibodies for 30 minutes at room temperature (except for the wells with chromogen only).
Rinse the wells 4 times with 400 μl of washing buffer from the kit. Add 100 μL of chromogen and incubate for 30 minutes in the dark at room temperature.
Stop the reaction with 100 μl of stop solution. Read at once at […] 0.1 second in the Wallac Victor plate reader.
The products of formula (I) as defined above show cellular activity in this test between 10 nM and 10 μM.

MKN45 cells = test: Test D: cellular proliferation by 14C-thymidine pulse, MKN45 cells; assay type: cell-based; conditions: cell line not stated (HCT116 or MKN45)
Method: D) Measurement of Cellular Proliferation by 14C-Thymidine Pulse
The cells are sown in Cytostar 96-well plates under 180 μl for 4 hours at 37° C. and 5% CO2: The HCT116 cells at a rate of 2500 cells per well in DMEM medium+10% foetal calf serum+1% of L-glutamine and the MKN45 cells at a rate of 7500 cells per well in RPMI medium+10% foetal calf serum+1% of L-glutamine. After said incubation for 4 hours, the products are added under 10 μl in 20-times concentrated solution according to the method of dilution stated for ELISA. The products are tested at 10 concentrations in duplicate from 10000 nM to 0.3 nM in steps of 3.
After treatment for 72 h, add 10 μl of 14C-thymidine at 10 μCi/ml to obtain 0.1 μCi per well. The incorporation of 14C-thymidine is measured on a Micro-Beta (Perkin-Elmer) after 24 hours of pulse and 96 h of treatment.
All the stages of the test are automated on the BIOMEK 2000 or TECAN stations.

[1] = Homo sapiens, MKN-45, cellular proliferation by 14C-thymidine pulse

T1 sequence (P08581 956-1390): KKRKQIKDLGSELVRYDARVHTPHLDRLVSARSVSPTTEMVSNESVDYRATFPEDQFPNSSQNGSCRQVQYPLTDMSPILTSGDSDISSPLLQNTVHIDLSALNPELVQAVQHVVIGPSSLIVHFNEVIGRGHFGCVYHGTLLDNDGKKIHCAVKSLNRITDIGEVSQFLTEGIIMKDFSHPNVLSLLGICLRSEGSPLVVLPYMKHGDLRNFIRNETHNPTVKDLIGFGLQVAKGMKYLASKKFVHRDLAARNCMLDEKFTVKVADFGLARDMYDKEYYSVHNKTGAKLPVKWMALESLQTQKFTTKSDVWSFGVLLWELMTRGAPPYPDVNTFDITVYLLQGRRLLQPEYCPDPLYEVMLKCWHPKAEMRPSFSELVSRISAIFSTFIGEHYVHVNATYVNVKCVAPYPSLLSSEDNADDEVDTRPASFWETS

Row | Structure (SMILES) | IC50 (c-MET) | IC50 (MET) | IC50 (MKN45 cells; [1]) | melting point | IC50 (MKN45 cells; cellular proliferation by 14C-thymidine pulse)
1 | Nc1nc2ccc(OCc3c(F)cccc3F)cc2s1 [Example 12, 6-[(2,6-difluorobenzyl)oxy]-1,3-benzothiazol-2-amine] | – | – | > 10 µM | 178 °C | –
2 | Cc1cc(COc2ccc3nc(NC(=O)NCCN4CCOCC4)sc3c2)n(C)n1 [Example 20, 1-{6-[(1,3-dimethyl-1H-pyrazol-5-yl)methoxy]-1,3-benzothiazol-2-yl}-3-(2-morpholin-4-ylethyl)urea] | 100 to 10000 nM | – | > 10 µM | 160 °C | –
3 | CNC(=O)OC(C)(C)CCCNC(=O)Nc1nc2cc(F)c(OC(C)c3c(Cl)ccc(F)c3Cl)cc2s1 (centres unmarked) [Example 95, {2-[({6-[1-(2,6-dichloro-3-fluorophenyl)ethoxy]-5-fluoro-1,3-benzothiazol-2-yl}carbamoyl)amino]ethyl}2-methylpropan-2-yl methylcarbamate] | – | – | – | 151 to 193 °C | –
4 | CC(Oc1cc2sc(NC(=O)NC3CC3)nc2cc1F)c1c(Cl)ccc(F)c1Cl (centres unmarked) [Example 131, 1-cyclopropyl-3-{6-[1-(2,6-dichloro-3-fluorophenyl)ethoxy]-5-fluoro-1,3-benzothiazol-2-yl}urea] | < 100 nM | < 500 nM | < 0.5 µM | – | –
5 | CC(Oc1cc2sc(NC(=O)NCCCC(C)(C)OC(N)=O)nc2cc1F)c1c(Cl)ccc(F)c1Cl (centres unmarked) [Example 87, {2-[({6-[1-(2,6-dichloro-3-fluorophenyl)ethoxy]-5-fluoro-1,3-benzothiazol-2-yl}carbamoyl)amino]ethyl}2-methylpropan-2-yl carbamate] | – | – | – | 230 °C | –
6 | CCN(CC)CCOC(=O)Nc1nc2cc(F)c(OC(C)c3c(Cl)ccc(F)c3Cl)cc2s1 (centres unmarked) [Example 71] | < 100 nM | 500 to 10000 nM | 0.5 to 10 µM | – | –
7 | CC(Oc1cc2sc(NC(=O)NCCNC(=O)OC(C)(C)C)nc2cc1F)c1c(Cl)ccc(F)c1Cl (centres unmarked) [Example 87] | < 100 nM | 500 to 10000 nM | 0.5 to 10 µM | – | –

The next lines start with the values.

Row | IC50 (c-MET) | IC50 (MET) | IC50 (MKN45 cells; [1]) | melting point | IC50 (MKN45 cells; cellular proliferation by 14C-thymidine pulse) | Structure (SMILES)
8 | < 100 nM | 500 to 10000 nM | 0.5 to 10 µM | – | – | COCCOC(=O)Nc1nc2cc(F)c(OC(C)c3c(Cl)ccc(F)c3Cl)cc2s1 (centres unmarked) [Example 72]
9 | – | – | – | 188 to 190 °C | – | CCN(CC)C(CCOC(N)=O)c1nc2cc(F)c(OC(C)c3c(Cl)ccc(F)c3Cl)cc2s1 (centres unmarked) [Example 70, {6-[1-(2,6-dichloro-3-fluorophenyl)ethoxy]-5-fluoro-1,3-benzothiazol-2-yl}3-(diethylamino)propyl carbamate]
10 | – | – | – | 184 to 186 °C | – | CCN(CC)C(COC(N)=O)c1nc2cc(F)c(OC(C)c3c(Cl)ccc(F)c3Cl)cc2s1 (centres unmarked) [Example 71, {6-[1-(2,6-dichloro-3-fluorophenyl)ethoxy]-5-fluoro-1,3-benzothiazol-2-yl}2-(diethylamino)ethyl carbamate]
11 | – | – | – | 235 to 240 °C | – | CC(Oc1ccc2nc(C(COC(N)=O)N3CCOCC3)sc2c1)c1c(Cl)ccc(F)c1Cl (centres unmarked) [Example 74, {6-[1-(2,6-dichloro-3-fluorophenyl)ethoxy]-1,3-benzothiazol-2-yl}2-(morpholin-4-yl)ethyl carbamate]
12 | < 100 nM | < 500 nM | 0.5 to 10 µM | – | – | CC(Oc1ccc2nc(NC(=O)NCCC3CCN(Cc4ccccc4)CC3)sc2c1)c1c(Cl)ccc(F)c1Cl (centres unmarked) [Example 52, 1-[2-(1-benzylpiperidin-4-yl)ethyl]-3-{6-[1-(2,6-dichloro-3-fluorophenyl)ethoxy]-1,3-benzothiazol-2-yl}urea]
13 | – | – | > 10 µM | 95 to 105 °C | – | CC(Oc1ccc2nc(NC(=O)NCCC3CCN(C(=O)OC(C)(C)C)CC3)sc2c1)c1c(Cl)ccc(F)c1Cl (centres unmarked) [Example 38, 1,1-dimethylethyl 4-{2-[({6-[1-(2,6-dichloro-3-fluorophenyl)ethoxy]-1,3-benzothiazol-2-yl}carbamoyl)amino]ethyl}piperidine-1-carboxylate]
14 | 100 to 10000 nM | – | > 10 µM | 170 °C | – | Cc1ccc(F)c(C(C)Oc2ccc3nc(N)sc3c2)c1Cl (centres unmarked) [Example 27, 6-[1-(2-chloro-6-fluoro-3-methylphenyl)ethoxy]-1,3-benzothiazol-2-amine]
15 | < 100 nM | – | – | – | 0.5 to 10 µM | CC(Oc1cc2sc(NC(=O)NCCN)nc2cc1F)c1c(Cl)ccc(F)c1Cl (single isomer, unassigned) [Example 90, 1-(2-aminoethyl)-3-{6-[(1S*)-1-(2,6-dichloro-3-fluorophenyl)ethoxy]-5-fluoro-1,3-benzothiazol-2-yl}urea]
16 | 100 to 10000 nM | 500 to 10000 nM | – | – | – | CC(Oc1ccc2nc(NC(=O)NCCN3CCOCC3)sc2c1)c1c(Cl)ccc(F)c1Cl (single isomer, unassigned) [Example 26, 1-{6-[(1S*)-(2,6-dichloro-3-fluorophenyl)ethoxy]-1,3-benzothiazol-2-yl}-3-(2-morpholin-4-ylethyl)urea]
17 | – | – | – | 200 to 205 °C | – | COC(COC(N)=O)c1nc2cc(F)c(OC(C)c3c(Cl)ccc(F)c3Cl)cc2s1 (centres unmarked) [Example 72, {6-[1-(2,6-dichloro-3-fluorophenyl)ethoxy]-5-fluoro-1,3-benzothiazol-2-yl}2-methoxyethyl carbamate]
